Measurements as given in patent EP2392327A1, “Use of orlistat for the anti-parasitic treatment of a parasitic disease” (Universitätsmedizin der Johannes Gutenberg-Universität Mainz, priority 2010, dated 2011).
Read-outs that look alike come from different tables or passages of the source.

Assays:
HCT-8 cells = test: Cytotoxicity in MTS/PMS assay on HCT-8 cells; assay type: cell-based; details: HCT-8 cultures, 48 hrs
Method: Cells were passaged in maintenance medium at 37°C in a 6% CO2/94% humidified air incubator.
Cytotoxicity of Orlistat was tested in an MTS/PMS assay (Hommer et al., 2003). Orlistat stock solution and DMSO solvent (control) were diluted in culture medium and serial dilutions were applied to HCT-8 cultures for 48 hrs.

Cryptosporidium parvum [1] = test: In vitro inhibition of the development of Cryptosporidium parvum in HCT-8 cells (cell culture-based enzyme-immune assay)
Method: In a cell culture-based enzyme-immune assay increasing concentrations of Orlistat (1 - 15 µM) diluted in culture medium were tested for the inhibition of the development of Cryptosporidium parvum. The parasites were allowed to develop in HCT-8 cells for 48 hrs. The optical readings were converted into parasite growth relative to mean of the controls [%]. […] Orlistat (# 04139, Sigma, Deisenhofen, Germany) was dissolved in DMSO at 10 mM (stock solution). […] Cells were passaged in maintenance medium at 37°C in a 6% CO2/94% humidified air incubator. HCT-8 cells were seeded in 96-well culture plates and infected with Cryptosporidium parvum oocysts (IOWA strain) as described (Hommer et al., 2003). At 2 hrs post infection (p.i.) non-invaded parasites were removed by washing. Orlistat diluted in culture medium or medium alone (negative control) were added. After a total of 48 hrs p.i. culture plates were washed with PBS and fixed with methanol for 15 min. Intracellular stages of Cryptosporidium parvum were detected by an enzyme-immune assay using a monoclonal antibody (McDonald et al., 1995) as described previously (Hommer et al., 2003). Experiments were performed in six-fold replica. Optical density (OD) readings were corrected by the OD of non-infected HCT-8 cells. The means of the infected controls without Orlistat were taken as 100% growth rate. […]

Cryptosporidium parvum [2] = details: 1.5x10^6 parasites, 5.0 mg Orlistat per gram dry matter
Excerpt: Error bars represent standard deviations. […] Error bars represent standard deviations.

[3] = cited from earlier work
[4] = within the physiological pH range; cited from earlier work

Structure (SMILES): CCCCCCCCCCC[C@@H](C[C@@H]1OC(=O)[C@H]1CCCCCC)OC(=O)[C@H](CC(C)C)NC=O [Orlistat]
- cytotoxic effect on HCT-8 cells detected at concentrations (HCT-8 cells): > 20 µM
- inhibition at 15 µM (Cryptosporidium parvum [1]; Cryptosporidium parvum, 15 µM, 48 hrs p.i., HCT-8 host cells, compared to the infected but untreated controls, read-out: inhibition rate): > 90%
- reduction of parasite development in the HCT-8 host cells (Cryptosporidium parvum [1]; all Orlistat concentrations (1 - 15 µM), p < 0.0002): concentration dependent, statistically significant reduction
- reduction of total parasite excretion by a factor (Cryptosporidium parvum [2]; interferon-gamma deficient mice, p < 0.0006): 125
- reduction of total parasite excretion by a factor (Cryptosporidium parvum [2]; interleukin-12 deficient mice, p < 0.008): over 80
- solubility in chloroform ([3]; chloroform): freely soluble
- solubility in methanol and ethanol ([3]; methanol and ethanol): very soluble
- solubility in water ([3]; water): practically insoluble
- pKa [4]: no pKa within the physiological pH range
